Laboratory results reported in US11839683B2, “Method of rapidly achieving therapeutic concentrations of triptans for treatment of migraines” (EMERGEX USA CORPORATION, priority 2016, dated 2023).
Like-named read-outs stand apart in the source and are kept apart here.

How the values were obtained:
[1] = In vitro dissolution, USP Paddle over Disk apparatus (USP apparatus 5); assay type: physicochemical; settings: M207 1.9 mg patch
Description: In vitro dissolution of […] 1.9 mg patches were evaluated using standard USP Paddle over Disk apparatus (USP apparatus 5) with Distek […] 6-position dissolution tester. The paddle height was set at 25 mm above patch and rotated at 50 RPM. An USP vessel was filled with degassed 500 mL PBS dissolution medium and the temperature was controlled at 32° C. A full patch assembly containing the coated patch adhered to the center of an inner ring and then attached to an outer ring was inserted along the vessel wall into the vessel with the coated microprojections facing upright. […] […] patches stored at room temperature and at 40° C./75% relative humidity for 10 months were evaluated.

clinical = settings: both, human, in vivo; for AUC(0-inf): AUCinf
Description: The final treatment administered was 3.8 mg on a 10 cm^2 patch using an applicator with 0.52 Joule of application energy in the intracutaneous microneedle system described herein. The products tested were:
This was a single-center, open-label, randomized five-way crossover study (Part 1) followed by a sequential study of two additional treatments (Parts 2 and 3). After obtaining informed consent and establishing eligibility, each subject received each of the seven study treatments once, followed by in-clinic monitoring and extensive blood sample collection for pharmacokinetic analysis. […] Plasma samples from the initial dosing days were sent to the analytical laboratory for analysis, and tolerability for each of the dose levels was summarized. […] During Part 3, subjects received a single 3.8 mg patch (applied with a 0.52 J applicator) and also completed identical procedures to the previous dosing days. After completion of the seven dosing days, subjects were assessed one final time and dismissed from the study.
Twenty subjects were enrolled in the study, 10 males and 10 females. The subjects mean age was 29 years±3.5 years with a mean BMI of 24.4±3.5.
PK parameters were summarized by treatment group using descriptive statistics (arithmetic means, standard deviations, coefficients of variation, sample size, minimum, maximum, and median).
Graphs of apparent dose linearity and proportionality of PK parameters (AUCt, AUCinf and Cmax) were compiled.

[2] = 10 mg oral, Seaber1997, cited from earlier work
migraine = settings: cited from earlier work
[3] = NASAL 2.5 mg, 1 hour, Charlesworth et al, 2003
[4] = NASAL 2.5 mg, 2 hour, Charlesworth et al, 2003
[5] = NASAL 2.5 mg, 4 hour, Charlesworth et al, 2003
[6] = ODT 2.5 mg, 1 hour, Dowson et al, 2002
[7] = ODT 2.5 mg, 2 hour, Dowson et al, 2002
[8] = TABLET 2.5 mg, 1 hour, Pascual et al, 2000
[9] = TABLET 2.5 mg, 1 hour, Steiner et al, 2003
[10] = TABLET 2.5 mg, 2 hour, Pascual et al, 2000
[11] = TABLET 2.5 mg, 2 hour, Steiner et al, 2003
[12] = TABLET 5 mg, 1 hour, Dahlof et al 1998
[13] = TABLET 5 mg, 1 hour, Geraud et al, 2000
[14] = TABLET 5 mg, 2 hour, Dahlof et al 1998
[15] = TABLET 5 mg, 2 hour, Geraud et al, 2000
[16] = TABLET 5 mg, 4 hour, Geraud et al, 2000
[17] = TABLET 10 mg, 1 hour, Dahlof et al 1998
[18] = TABLET 10 mg, 2 hour, Dahlof et al 1998

Percent Dissolution (% D) ([1]; E-beam irradiated, stored at 40° C./75% RH for 10 months, 0 s): 0%
Percent Dissolution (% D) ([1]; E-beam irradiated, stored at 40° C./75% RH for 10 months, 20 s): 5-10%
Percent Dissolution (% D) ([1]; E-beam irradiated, stored at 40° C./75% RH for 10 months, 40 s): 10-50%
Percent Dissolution (% D) ([1]; E-beam irradiated, stored at 40° C./75% RH for 10 months, 60 s): 50-100%
Percent Dissolution (% D) ([1]; E-beam irradiated, stored at 40° C./75% RH for 10 months, 80 s): 100%
Percent Dissolution (% D) ([1]; E-beam irradiated, stored at 40° C./75% RH for 10 months, 100 s): 100%
Percent Dissolution (% D) ([1]; E-beam irradiated, stored at RT for 10 months, 0 s): 0%
Percent Dissolution (% D) ([1]; E-beam irradiated, stored at RT for 10 months, 20 s): 60-80%
Percent Dissolution (% D) ([1]; E-beam irradiated, stored at RT for 10 months, 40 s): 90-100%
Percent Dissolution (% D) ([1]; E-beam irradiated, stored at RT for 10 months, 60 s): 100%
Percent Dissolution (% D) ([1]; E-beam irradiated, stored at RT for 10 months, 80 s): 100%
Percent Dissolution (% D) ([1]; E-beam irradiated, stored at RT for 10 months, 100 s): 100%
Percent Dissolution (% D) ([1]; non-irradiated, stored at 40° C./75% RH for 10 months, 0 s): 0%
Percent Dissolution (% D) ([1]; non-irradiated, stored at 40° C./75% RH for 10 months, 20 s): 0%
Percent Dissolution (% D) ([1]; non-irradiated, stored at 40° C./75% RH for 10 months, 40 s): 10-40%
Percent Dissolution (% D) ([1]; non-irradiated, stored at 40° C./75% RH for 10 months, 60 s): 90-100%
Percent Dissolution (% D) ([1]; non-irradiated, stored at 40° C./75% RH for 10 months, 80 s): 100%
Percent Dissolution (% D) ([1]; non-irradiated, stored at 40° C./75% RH for 10 months, 100 s): 100%
Tmax, Mean (SD) (clinical): 17.10 (11.82)
Tmax, Median (clinical): 17.5 min
t1/2, Mean (SD) (clinical): 91.70 (18.7)
t1/2, Median (clinical): 96.2 min
AUC(0-t) (clinical; 0.48 mg, AUC2 hrs, Mean (SD)): 2.11 ng·h/mL
AUC(0-t) (clinical; 0.48 mg, AUC2 hrs, Median): 2.11 ng·h/mL
AUC(0-inf) (clinical; 0.48 mg, Mean (SD)): 3.81 ng·h/mL
AUC(0-inf) (clinical; 0.48 mg, Median): 3.78 ng·h/mL
AUC(0-t) (clinical; 0.48 mg, AUCt, Mean (SD)): 2.81 ng·h/mL
AUC(0-t) (clinical; 0.48 mg, AUCt, Median): 2.78 ng·h/mL
Cmax (clinical; 0.48 mg, Mean (SD)): 1.84 ng/mL
Cmax (clinical; 0.48 mg, Median): 1.8 ng/mL
Tmax (clinical; 0.48 mg, Tmax, Mean (SD)): 17.3 min
Tmax (clinical; 0.48 mg, Tmax, Median): 20 min
half-life (clinical; 0.48 mg, t1/2, Mean (SD)): 69.1 min
half-life (clinical; 0.48 mg, t1/2, Median): 64.6 min
AUCinf, Median (clinical; 1.9 mg): 14.5 ng·h/mL
AUC(0-t) (clinical; 1.9 mg, AUC2 hrs, Mean (SD)): 7.36 ng·h/mL
AUC(0-t) (clinical; 1.9 mg, AUC2 hrs, Median): 7.75 ng·h/mL
AUC(0-inf) (clinical; 1.9 mg, Mean (SD)): 14.1 ng·h/mL
AUC(0-t) (clinical; 1.9 mg, AUCt, Mean (SD)): 12.3 ng·h/mL
AUC(0-t) (clinical; 1.9 mg, AUCt, Median): 12.7 ng·h/mL
Cmax (clinical; 1.9 mg, Mean (SD)): 6.76 ng/mL
Cmax (clinical; 1.9 mg, Median): 6.4 ng/mL
Tmax (clinical; 1.9 mg, Tmax, Mean (SD)): 17.9 min
Tmax (clinical; 1.9 mg, Tmax, Median): 20 min
half-life (clinical; 1.9 mg, t1/2, Mean (SD)): 87.8 min
half-life (clinical; 1.9 mg, t1/2, Median): 84.7 min
t1/2, Mean (SD) (clinical; 3.8 mg): 91.00 (18.80)
AUC(0-t) (clinical; 3.8 mg, AUC2 hrs, Mean (SD)): 19.3 ng·h/mL
AUC(0-t) (clinical; 3.8 mg, AUC2 hrs, Median): 18.4 ng·h/mL
AUC(0-inf) (clinical; 3.8 mg, Mean (SD)): 33.8 ng·h/mL
AUC(0-inf) (clinical; 3.8 mg, Median): 32.2 ng·h/mL
AUC(0-t) (clinical; 3.8 mg, AUCt, Mean (SD)): 31.6 ng·h/mL
AUC(0-t) (clinical; 3.8 mg, AUCt, Median): 29.9 ng·h/mL
Cmax (clinical; 3.8 mg, Mean (SD)): 22.6 ng/mL
Cmax (clinical; 3.8 mg, Median): 19.9 ng/mL
Tmax (clinical; 3.8 mg, Tmax, Mean (SD)): 16.1 min
Tmax (clinical; 3.8 mg, Tmax, Median): 15 min
half-life (clinical; 3.8 mg, t1/2, Median): 87.2 min
Tmax (clinical; Tmax, Mean (SD)): 18.4 min
Tmax (clinical; Tmax, Median): 20 min
Tmax (clinical; mean Tmax): 16.1 to 18.4 min
Cmax (clinical; po, 2.5 mg, Median): 3.7 ng/mL
half-life (clinical; t1/2, Mean (SD)): 77.2 min
half-life (clinical; t1/2, Median): 82 min
Structure (SMILES): CN(C)CCc1c[nH]c2ccc(C[C@H]3COC(=O)N3)cc12 [Zolmitriptan, zolmitriptan]
AUC0-last ([2]; (F)): 108.6 ng·h/mL
Cmax ([2]; (F)): 20.9 ng/mL
AUC0-last ([2]; (M)): 84.4 ng·h/mL
Cmax ([2]; (M)): 16.6 ng/mL
% PAIN FREE (migraine; [3]): 10.6%
% PAIN RELIEF (migraine; [3]): 40.2%
% PAIN FREE (migraine; [4]): 21.0%
% PAIN RELIEF (migraine; [4]): 55.4%
% PAIN FREE (migraine; [5]): 38.4%
% PAIN RELIEF (migraine; [5]): 63.4%
% PAIN FREE (migraine; [6]): 7.8%
% PAIN RELIEF (migraine; [6]): 45.0%
% PAIN FREE (migraine; [7]): 27.0%
% PAIN RELIEF (migraine; [7]): 63.0%
% PAIN FREE (migraine; ODT 2.5 mg, 4 hour, Dowson et al, 2002): 37.0%
% PAIN FREE (migraine; [8]): 10.4%
% PAIN RELIEF (migraine; [8]): 35.3%
% PAIN FREE (migraine; [9]): 5.7%
% PAIN RELIEF (migraine; [9]): 25.1%
% PAIN FREE (migraine; [10]): 35.6%
% PAIN RELIEF (migraine; [10]): 66.8%
% PAIN FREE (migraine; [11]): 26.3%
% PAIN RELIEF (migraine; [11]): 59.6%
% PAIN RELIEF (migraine; TABLET 2.5 mg, 4 hour, Steiner et al, 2003): 25.1%
% PAIN FREE (migraine; [12]): 10.0%
% PAIN RELIEF (migraine; [12]): 44.0%
% PAIN FREE (migraine; [13]): 7.8%
% PAIN RELIEF (migraine; [13]): 34.2%
% PAIN FREE (migraine; [14]): 39.0%
% PAIN RELIEF (migraine; [14]): 66.0%
% PAIN FREE (migraine; [15]): 29.3%
% PAIN RELIEF (migraine; [15]): 58.7%
% PAIN FREE (migraine; [16]): 54.6%
% PAIN RELIEF (migraine; [16]): 80.5%
% PAIN FREE (migraine; [17]): 9.0%
% PAIN RELIEF (migraine; [17]): 40.0%
% PAIN FREE (migraine; [18]): 39.0%
% PAIN RELIEF (migraine; [18]): 71.0%
pain freedom at 2 hours (migraine; lowest oral dose): 29%
pain relief at 2 hours (migraine; lowest oral dose): 62%
